US11807625B2, “Capsid inhibitors for the prevention of HIV” (Gilead Sciences, Inc., priority 2019, dated 2023)

Test system: SHIV-162P3
Assay: 7-day antiviral assay (p24 ELISA endpoint) in rhesus PBMCs infected with SHIV-162P3
Assay type: cell-based
Description: The mean 95% effective concentration (EC95) of 1.91±0.16 nM for a compound of Formula (Ib) (“Compound Ib”) was determined using a 7-day antiviral assay (p24 ELISA endpoint) in rhesus peripheral blood mononuclear cells (PBMCs) infected with SHIV-162P3. A competitive equilibrium dialysis assay was used to quantify rhesus plasma protein binding to Compound Ib, resulting in an inhibitory quotient (IQ) equal to Compound Ib plasma concentrations divided by a mean rhesus plasma protein-binding-adjusted EC95 (paEC95) value of 30.2±2.5 nM.

`CC(C)(C#Cc1ccc(-c2ccc(Cl)c3c(NS(=O)(=O)C4CC4)nn(CC(F)F)c23)c([C@H](Cc2cc(F)cc(F)c2)NC(=O)Cn2nc(C(F)F)c3c2C(F)(F)[C@@H]2C[C@H]32)n1)S(C)(=O)=O` [Compound Ib, N—((S)-1-(3-(4-chloro-3-(cyclopropanesulfonamido)-1-(2,2-difluoroethyl)-1H-indazol-7-yl)-6-(3-methyl-3-(methylsulfonyl)but-1-yn-1-yl)pyridin-2-yl)-2-(3,5-difluorophenyl)ethyl)-2-((3b S,4aR)-3-(difluoromethyl)-5,5-difluoro-3b,4,4a,5-tetrahydro-1H-cyclopropa[3,4]cyclopenta[1,2-c]pyrazol-1-yl)acetamide] was tested, and the “mean 95% effective concentration (EC95)” value was 1.91 ± 0.16 nM.
